The record followed here is patent US20210283163A1, “COMPOSITIONS AND METHODS FOR THE TREATMENT OF ACUTE AND CHRONIC PRURITIS” (Duke University, priority 2018, published 2021).

Series [1] relates to TG neurons. Description: Calcium imaging in TG neurons of Pirt-GCaMP3 mice. The conditions noted are these: histamine 500 μM, CQ 1000 μM, AITC 200 μM; for TG neurons responding (calcium): miR-711 50 μM, 204 neurons. It is filed as cell-based, mouse. On the procedure: Primary Cultures of Mouse and Human Sensory Neurons. […] Cells were mechanically dissociated with a flame polished Pasteur pipette in the presence of 0.05% DNase I (Sigma).
Ca^2+ Imaging. […] The imaging buffer includes 140 mM NaCl, 10 mM D-(+)-Glucose, 1 mM MgCl2, 2 mM CaCl2, 5 mM KCl, 10 mM HEPES, pH=7.4, osmolarity=320 mOsm/L. Calcium signals were measured using green emitted light in a 3 s interval. Ca ^2+ signal amplitudes were presented as ΔF/F0=(Ft−F0)/F0 as ratio of fluorescence difference (Ft−F0) to basal value (F0). The average fluorescence intensity in the baseline period was taken as F0. Ca ^2+ imaging was also analyzed in HEK293-TRPA1 cell line after loading cells with […] fura2-AM (Invitrogen) for 40 min in the Ca^2+ imaging buffer. Ca^2+ imaging protocol was a ratio metric method with 340/380-nm wavelength light for dual excitation. Data were presented as ΔR/R0, determined as the fraction ΔR (Rt−R0) of the increase of a given ratio over baseline ratio (R0).

Series [2] relates to mTRPA1 mutants (M1-M13). The experiment in a line: Whole-cell patch clamp in CHO cells transfected with mutant mTrpa1 cDNAs (M1-M13). It is filed as cell-based, mouse. The conditions noted are these: for effect of mutations on induced currents: M2, M3, M4, M5, and M10; for induced currents in mutants: mutants M1, M6, M7, M8, M9, and M12, AITC 50 μM, miR-711 10 μM. On the procedure: Constructs. The cDNAs of mouse pcDNA3.1-Trpa1, pcDNA3.1-Trpv1, pcDNA3.1-Trpv2, pcDNA3.1-Trpv3, and pcDNA3.1-Trpv4 were kindly provided Dr. Sun Work Hwang from Korea University. Mouse Trpa1 cDNA was subcloned into pCGN-HA backbone (Addgene) using In-Fusion HD Cloning Kit (Clontech Laboratories, CA). Q5 Site-Directed Mutagenesis Kit was used to generate mTrpa1 mutant (M1-M13) based on pCGN-mTrpa1.
Cell Culture and Transfection. CD4^+ Myla cell line was cultured in RPMI 1640 media (GIBCO), supplemented with 2 mM Glutamine (GIBCO), 100 U/mL IL-2 (Sigma), 100 U/mL IL-4 (Sigma), and 10% human AB serum (Sigma). HuT 102 cell line was cultured in RPMI 1640 supplemented with pyruvate, HEPES, and 10% (v/v) fetal bovine serum (HyClone). HEK293-hTRPA1 stable cell line was cultured in MEM (GIBCO) containing 2 mM Glutamine, 4 μg/mL Blasticidin, 10% FBS (v/v). B16 and CHO cells were cultured in high glucose (4.5 g/L) Dulbecco's Modified Eagle's Medium (GIBCO) containing 10% (v/v) fetal bovine serum (GIBCO). Culture media were supplemented with 50 units/mL of penicillin and 50 μg/mL streptomycin, and cultures were maintained with 5% CO2 in 37° C. incubator. Transfection (2 μg cDNA) was performed with Lipofectamine™ 2000 Reagent (Invitrogen) at 80% confluency and the transfected cells were cultured in the same media for 48 hr before electrophysiological and biochemical studies.
Whole-Cell Patch Clamp Recordings in HEK293 Cells, CHO Cells, and DRG Neurons. Whole-cell patch clamp recordings were performed at room temperature using an Axopatch-200B amplifier (Axon Instruments) with a Digidata 1440B (Axon Instruments). In this study, we only examined small-diameter mouse DRG neurons (<25 μM) and small-diameter human DRG neurons (<55 μM). The patch pipettes were pulled from borosilicate capillaries (World Precision Instruments) using a P-97 Flaming/Brown micropipette puller (Sutter Instrument). Pipette resistance was 4-6 MΩ for whole-cell and outside-out recording. For inward current recordings in mouse and human DRG neurons, HEK293 cells, and CHO cells, the internal solution contains (in mM): 140 CsCl, 10 EGTA, 10 HEPES, and 2 Mg-ATP, adjusted to pH 7.3 with CsOH. Whole cell recordings were performed in an extracellular solution that contains (in mM): 140 NaCl, 5 KCl, 2 MgCl2, 10 HEPES, and 10 glucose, adjusted to pH 7.4 with NaOH and osmolarity to 300-310 mOsm. […] Action potential recordings were performed in small-diameter DRG neurons, with the following solutions: i) internal pipette solution contains: 126 mM K-gluconate, 10 mM NaCl, 1 mM MgCl2, 10 mM EGTA, 10 mM HEPES and 2 mM Na-ATP, adjusted to pH 7.4 with KOH and osmolarity to 295-300 mOsm), and ii) extracellular solution contains: 140 mM NaCl, 5 mM KCl, 2 mM MgCl2, 2 mM CaCl2, 10 mM HEPES, 10 mM glucose, adjusted to pH 7.4 with KOH.
A general note: The patch-clamp technique gives a direct electrical read-out from membranes.

The target in series [3] is hTRPA1 (Homo sapiens, UniProt O75762). The experiment in a line: RNA pull-down assay and immunoblotting. It is filed as binding. On the procedure:
RNA Pull-Down Assay and Immunoblotting. hTRPA1-expressing HEK293 cells of equal amount (5×10^6) were plated onto 60 mm dishes, and 24 hr later, these cells were incubated with biotin-conjugated miR-711 or miR-711 (m6) in extracellular solution containing 140 mM NaCl, 5 mM KCl, 2 mM CaCl2, 1 mM MgCl2, 10 mM HEPES, and 10 mM glucose, adjusted to pH 7.4 for 15 min at 37° C. with 5% CO2. For crosslinking, 1% formaldehyde (vol/vol) was added at 37° C. for 10 min, then 12.5% glycine was applied to stop crosslinking by 5 min incubation at room temperature. Then the cells were collected and sonicated with ultrosonic probe sonicator (80% output, 5 s on and 10 s off) in 1 mL lysis buffer (1% Triton X-100, 50 mM Tris-HCl, 150 mM NaCl, 5 mM EDTA, pH7.4) on ice for 2 min. We then centrifuged the lysate at 13,000 rpm for 10 min at 4° C. and took 50 μL supernatant as lysate control. The remaining supernatant was added 20 μL streptadvilin agrose beads and incubated overnight. The pellets were collected after centrifuge at 6000 rmp for 30 s. For competing assay, miR-711 (10-50 μM) or mutant miR-711 (m6, 10-50 μM) were added 15 min before the incubation with biotin-conjugated miR-711 (10 μM). For immunoblotting, the lysates or beads were incubated in SDS-PAGE loading buffer for 30 min at 50° C., and supernatant was collected after centrifugation at 13000 rpm and decrosslink at 99° C. for 20 min. The samples were separated on an SDS-PAGE gel, transferred, and probed with TRPA1 antibody (1:1000; Alomone labs). The immunoreactive bands were detected with horseradish peroxidase-conjugated secondary antibody, visualized with enhanced chemiluminescence (Thermo scientific, Pittsburgh, Pa.), and quantified with Image-Pro Plus software (Media Cybernetics, Bethesda, Md.). Each experiment was repeated at least three times.
(A western blot detects proteins with antibodies after separation by electrophoresis.)

Chain of hTRPA1 (O75762 whole entry): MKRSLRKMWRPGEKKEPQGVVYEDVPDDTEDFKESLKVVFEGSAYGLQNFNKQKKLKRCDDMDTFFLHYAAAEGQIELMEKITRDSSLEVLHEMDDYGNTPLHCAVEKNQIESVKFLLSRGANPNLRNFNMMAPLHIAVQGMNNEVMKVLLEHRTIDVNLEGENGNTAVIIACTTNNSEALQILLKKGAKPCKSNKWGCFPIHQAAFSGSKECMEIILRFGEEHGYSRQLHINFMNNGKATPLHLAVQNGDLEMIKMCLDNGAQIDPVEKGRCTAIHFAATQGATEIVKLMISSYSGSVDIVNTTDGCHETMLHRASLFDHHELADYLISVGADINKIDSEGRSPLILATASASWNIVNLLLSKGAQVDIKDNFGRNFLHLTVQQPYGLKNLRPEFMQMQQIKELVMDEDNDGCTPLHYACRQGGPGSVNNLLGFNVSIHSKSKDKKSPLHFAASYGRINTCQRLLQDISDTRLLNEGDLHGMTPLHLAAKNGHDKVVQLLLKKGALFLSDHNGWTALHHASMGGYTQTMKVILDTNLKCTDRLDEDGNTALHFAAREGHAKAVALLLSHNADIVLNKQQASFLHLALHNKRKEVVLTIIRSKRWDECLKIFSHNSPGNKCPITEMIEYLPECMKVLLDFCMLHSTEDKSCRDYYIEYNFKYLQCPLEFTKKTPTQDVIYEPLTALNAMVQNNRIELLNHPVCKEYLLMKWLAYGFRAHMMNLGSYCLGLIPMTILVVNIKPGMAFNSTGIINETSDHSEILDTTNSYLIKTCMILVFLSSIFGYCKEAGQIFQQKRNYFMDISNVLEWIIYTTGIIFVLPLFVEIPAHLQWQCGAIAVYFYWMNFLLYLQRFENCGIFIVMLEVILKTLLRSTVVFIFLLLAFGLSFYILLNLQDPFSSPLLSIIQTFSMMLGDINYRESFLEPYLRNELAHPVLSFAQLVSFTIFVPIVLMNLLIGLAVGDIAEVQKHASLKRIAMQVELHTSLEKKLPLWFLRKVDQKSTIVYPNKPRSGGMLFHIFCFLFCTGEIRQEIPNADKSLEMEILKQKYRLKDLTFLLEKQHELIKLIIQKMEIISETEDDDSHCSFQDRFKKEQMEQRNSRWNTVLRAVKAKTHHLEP

As to `C=CCN=C=S` [AITC], in series [1], the “miR-711-responsive TG neurons that also responded” value was determined as 100% and the “TG neurons responding (calcium)” value amounted to 32.4%. Moreover, the “AITC-induced currents in mutants” value in series [2] (M2, M3, M4, M5, M10, M11, and M13) was “unaltered”. In addition, in series [2], the “effect of mutations on induced currents” value was “no effects” and the “induced currents in mutants” value is reported as “substantial reductions”.
Take “NH2-FRNELAYPVLTFGQL-COOH (H-FRNELAYPVLTFGQL-OH) [blocking peptide]”: the “disruption of the miR-711/TRPA1 interaction” value in series [3] (RNA pull-down) is “disrupted the miR-711/TRPA1 interaction”.
Consider “miR-711: mmu-miR-711: gggacccggggagagauguaag (SEQ ID NO: 5) (GGGACCCGGGGAGAGAUGUAAG; chemistry not given here)”, for which the “TG neurons responding (calcium)” value in series [1] was found to be 12.3%. In series [2], the “effect of mutations on induced currents” value was “no effects” and the “induced currents in mutants” value was “substantial reductions”. Moreover, the “competition with binding of biotin-labeled miR-711 to TRPA1” value in series [3] (10-50 μM added 15 min before biotin-conjugated miR-711 (10 μM)) is “inhibited the binding”.
